For series [1] the following is noted: in vivo, iv; cited from earlier work.
The nature of series [2]: Stability of the HPLC sample solution. Format: physicochemical. Here is the method:
Sonicate for 5 minutes verifying complete solubilization.

The mark [3] stands for this setting: 10° C., 30 days, in nitrogen, aluminium + polythene, MeOH.
[4] abbreviates: 10° C., 30 days, no nitrogen, polythene, MeOH.
The mark [5] stands for this setting: 20-25° C., 30 days, in nitrogen, aluminium + polythene, MeOH.
[6] abbreviates: 20-25° C., 30 days, no nitrogen, polythene, MeOH.
Setting [7] is: t0, no nitrogen, polythene, diluent MeOH, % area 254 nm.

Where two headings read alike, the source gives them in different places.

For the compound `CC1(C)C(/C=C/C=C/C=C/C=C2\N(CCCCS(=O)(=O)[O-])c3ccc4ccccc4c3C2(C)C)=[N+](CCCCS(=O)(=O)[O-])c2ccc3ccccc3c21.[Na+]` [067/046], under setting [3], the “% rt 3.5 (A)” value is recorded as “nq”, the “% rt 4.0” value was found to be 0.02%, the “% rt 8.9” value was found to be 0.04% and the “INNmax (unknown maximum impurity) %” value is listed as 0.07%. The Purity under setting [3] came to 99.77%. Further, under setting [4], the “% rt 3.5 (A)” value is listed as “nq”, the “% rt 4.0” value amounted to 0.04%, the “% rt 8.9” value is 0.04% and the “INNmax (unknown maximum impurity) %” value is recorded as 0.06%. Also, the Purity under setting [4] is recorded as 99.84%. Also, under setting [5], the “% rt 3.5 (A)” value is “nq”, the “% rt 4.0” value is reported as 0.03%, the “% rt 8.9” value came out at 0.05% and the “INNmax (unknown maximum impurity) %” value is 0.08%. For the same compound, the Purity under setting [5] is 99.71%. Under setting [6], the “% rt 3.5 (A)” value is reported as “nq”, the “% rt 4.0” value amounted to 0.076%, the “% rt 8.9” value is given as 0.05% and the “INNmax (unknown maximum impurity) %” value came to 0.076%. In addition, the Purity under setting [6] came to 99.78%. Besides, under setting [7], the “% rt 3.5 (A)” value is “nq”, the “% rt 4.0” value amounted to 0.02%, the “% rt 8.9” value is 0.03% and the “INNmax (unknown maximum impurity) %” value stood at 0.07%. The same compound came in with a Purity under setting [7] of 99.73%.

Take “1H-benz[e]indole, 2-[7-[1,3-dihydro-1,1-dimethyl-3-(4-sulfobutyl)-2H-benz[e]indol-2-ylidene]-1,3,5-heptatrienyl]-1,1-dimethyl-3-(4-sulfobutyl) hydroxide, inner salt, sodium salt [compound of formula (I)]”: in series [1], the “half-life of elimination by the body” value is 3 to 4 min. For the same compound, the “time for which the sample solution is stable” value in series [2] (sample preparation method 1: 40 mg in 50 ml mixture phase 70:30 A:B) and in series [2] (sample preparation method 2: 40 mg in 50 ml methanol) was no more than 30 min each time.

These data come from US20240158639A1, “PROCESS FOR PREPARING INDOCYANINE GREEN” (ICROM Srl, priority 2021, published 2024).
